Assay results: PubChem BioAssay AID330 (DTP/NCI, 2004)
Where “and” joins values, the source holds several entries; their conditions need not be identical. Equal entries are not always repeated. Toxic doses and inconclusive results are not listed.

Tested on: P388 leukemia ip, CD2F1 mice, survival T/C
Experiment: NCI In Vivo Anticancer Drug Screen. Data for tumor model P388 Leukemia (intraperitoneal) in CD2F1 (CDF1) mice
Conditions: endpoint: median survival time, higher = longer survival
Outline: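 Mice carrying the transplanted tumor received test compound or vehicle. Survival was recorded in each group, and the value is the treated-group measurement divided by that of the vehicle-treated control group.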

[1] = dose: 60.0 mg/kg/injection, schedule: Q01DX005 (ip), vehicle: saline
[2] = dose: 25.0 mg/kg/injection, schedule: Q01DX009 (ip), vehicle: saline with Tween-80
[3] = dose: 50.0 mg/kg/injection, schedule: Q04DX003 (ip), vehicle: saline with Tween-80
[4] = dose: 100.0 mg/kg/injection, schedule: Q04DX003 (ip), vehicle: saline with Tween-80
[5] = dose: 50.0 mg/kg/injection, schedule: Q01DX005 (ip), vehicle: Klucel (hydroxypropylcellulose) (HPC)
[6] = dose: 100.0 mg/kg/injection, schedule: Q01DX005 (ip), vehicle: Klucel (hydroxypropylcellulose) (HPC)
[7] = dose: 200.0 mg/kg/injection, schedule: Q01DX005 (ip), vehicle: Klucel (hydroxypropylcellulose) (HPC)
[8] = dose: 100.0 mg/kg/injection, schedule: Q01DX001 (ip), vehicle: saline with Tween-80
[9] = dose: 200.0 mg/kg/injection, schedule: Q01DX001 (ip), vehicle: saline with Tween-80
[10] = dose: 6.25 mg/kg/injection, schedule: Q01DX009 (ip), vehicle: saline with Tween-80
[11] = dose: 12.5 mg/kg/injection, schedule: Q01DX009 (ip), vehicle: saline with Tween-80
[12] = dose: 12.5 mg/kg/injection, schedule: Q01DX009 (ip), vehicle: other
[13] = dose: 25.0 mg/kg/injection, schedule: Q01DX009 (ip), vehicle: other
[14] = dose: 50.0 mg/kg/injection, schedule: Q01DX009 (ip), vehicle: other
[15] = dose: 100.0 mg/kg/injection, schedule: Q01DX009 (ip), vehicle: other
[16] = dose: 200.0 mg/kg/injection, schedule: Q01DX009 (ip), vehicle: other
[17] = dose: 50.0 mg/kg/injection, schedule: Q01DX001 (ip), vehicle: saline with Tween-80
[18] = dose: 60.0 mg/kg/injection, schedule: Q01DX005 (ip), vehicle: saline with Tween-80
[19] = dose: 120.0 mg/kg/injection, schedule: Q01DX005 (ip), vehicle: saline with Tween-80

COc1cccc2c1C(=O)c1c(O)c3c(c(O)c1C2=O)CC(O)(C(C)=O)CC3OC1CC(NC(=O)C(F)(F)F)C(OC(=O)c2ccc([N+](=O)[O-])cc2)C(CNC(=O)C(F)(F)F)O1 (stereo not given)
T/C (dose: 3.13 mg/kg/injection, schedule: Q04DX003 (ip), vehicle: distilled water + Tween-80): 92 % of control
T/C (dose: 6.25 mg/kg/injection, schedule: Q04DX003 (ip), vehicle: distilled water + Tween-80): 100 % of control
T/C (dose: 12.5 mg/kg/injection, schedule: Q04DX003 (ip), vehicle: distilled water + Tween-80): 96 % of control
T/C (dose: 25.0 mg/kg/injection, schedule: Q04DX003 (ip), vehicle: distilled water + Tween-80): 96 % of control
T/C (dose: 50.0 mg/kg/injection, schedule: Q04DX003 (ip), vehicle: distilled water + Tween-80): 100 % of control

C[C@@H]1[C@H](c2ccccc2)OCN1C
T/C (dose: 12.5 mg/kg/injection, schedule: Q01DX005 (ip), vehicle: saline): 101 % of control and 93 % of control
T/C (dose: 25.0 mg/kg/injection, schedule: Q01DX005 (ip), vehicle: saline): 101 % of control
T/C (dose: 30.0 mg/kg/injection, schedule: Q01DX005 (ip), vehicle: saline): 111 % of control
T/C (dose: 50.0 mg/kg/injection, schedule: Q01DX005 (ip), vehicle: saline): 109 % of control and 124 % of control
T/C [1]: 118 % of control
T/C (dose: 100.0 mg/kg/injection, schedule: Q01DX005 (ip), vehicle: saline): 111 % of control and 120 % of control
T/C (dose: 200.0 mg/kg/injection, schedule: Q01DX005 (ip), vehicle: saline): 109 % of control

CCN(c1ccccc1)c1cc(=O)nc2ccccn12
T/C [1]: 107 % of control
T/C (dose: 120.0 mg/kg/injection, schedule: Q01DX005 (ip), vehicle: saline): 105 % of control
T/C (dose: 240.0 mg/kg/injection, schedule: Q01DX005 (ip), vehicle: saline): 104 % of control

COC1OC2COC(c3ccccc3)OC2C(O)C1N (stereo not given)
T/C [2]: 112 % of control
T/C (dose: 25.0 mg/kg/injection, schedule: Q04DX003 (ip), vehicle: saline with Tween-80): 100 % of control
T/C (dose: 50.0 mg/kg/injection, schedule: Q01DX009 (ip), vehicle: saline with Tween-80): 95 % of control
T/C [3]: 100 % of control
T/C (dose: 100.0 mg/kg/injection, schedule: Q01DX009 (ip), vehicle: saline with Tween-80): 104 % of control
T/C [4]: 100 % of control

CCOC(=O)Nc1nc2ccccc2n1CN1CCN(C)CC1
T/C (dose: 25.0 mg/kg/injection, schedule: Q01DX005 (ip), vehicle: Klucel (hydroxypropylcellulose) (HPC)): 99 % of control
T/C [5]: 102 % of control and 97 % of control
T/C [6]: 100 % of control and 107 % of control
T/C [7]: 113 % of control and 120 % of control

Cc1nc2sccn2c1C(N)=O
T/C (dose: 60.0 mg/kg/injection, schedule: Q01DX005 (ip), vehicle: Klucel (hydroxypropylcellulose) (HPC)): 94 % of control
T/C [8]: 103 % of control
T/C (dose: 120.0 mg/kg/injection, schedule: Q01DX005 (ip), vehicle: Klucel (hydroxypropylcellulose) (HPC)): 97 % of control
T/C [9]: 114 % of control
T/C (dose: 400.0 mg/kg/injection, schedule: Q01DX001 (ip), vehicle: saline with Tween-80): 103 % of control

CNc1nc2ncnc(NC)c2[nH]1
T/C (dose: 50.0 mg/kg/injection, schedule: Q01DX005 (ip), vehicle: saline with Tween-80): 99 % of control
T/C (dose: 100.0 mg/kg/injection, schedule: Q01DX005 (ip), vehicle: saline with Tween-80): 92 % of control
T/C (dose: 200.0 mg/kg/injection, schedule: Q01DX005 (ip), vehicle: saline with Tween-80): 90 % of control

CCOC(=O)N1C(C(=O)c2ccc(C)cc2)N(C2CCCCC2)C(c2ccccc2)N1C(=O)OCC (stereo not given)
T/C (dose: 400.0 mg/kg/injection, schedule: Q01DX009 (ip), vehicle: saline with Tween-80): 86 % of control

Br[C](Br)(Br)[Hg][c]1ccccc1
T/C (dose: 3.13 mg/kg/injection, schedule: Q01DX009 (ip), vehicle: saline with Tween-80): 106 % of control
T/C [10]: 100 % of control
T/C [11]: 104 % of control

O=C(/C=C/c1ccccc1)c1ccc(O)cc1
T/C [10]: 103 % of control
T/C [11]: 109 % of control
T/C [2]: 110 % of control
T/C [3]: 98 % of control
T/C [4]: 98 % of control
T/C (dose: 400.0 mg/kg/injection, schedule: Q04DX003 (ip), vehicle: saline with Tween-80): 114 % of control

CSCc1csc(N)n1
T/C [12]: 102 % of control
T/C [13]: 96 % of control
T/C [14]: 111 % of control
T/C [15]: 111 % of control
T/C [16]: 100 % of control

CCCCCCCCCCSCC(CO)NC(=O)/C=C/c1c(C)[nH]c(=O)[nH]c1=O (stereo not given)
T/C (dose: 3.13 mg/kg/injection, schedule: Q01DX009 (ip), vehicle: distilled water + Tween-80): 104 % of control
T/C (dose: 6.25 mg/kg/injection, schedule: Q01DX009 (ip), vehicle: distilled water + Tween-80): 112 % of control
T/C (dose: 6.25 mg/kg/injection, schedule: Q01DX009 (ip), vehicle: other): 114 % of control and 117 % of control
T/C (dose: 12.5 mg/kg/injection, schedule: Q01DX009 (ip), vehicle: distilled water + Tween-80): 110 % of control
T/C [12]: 114 % of control and 115 % of control
T/C (dose: 25.0 mg/kg/injection, schedule: Q01DX009 (ip), vehicle: distilled water + Tween-80): 99 % of control and 110 % of control
T/C (dose: 50.0 mg/kg/injection, schedule: Q01DX009 (ip), vehicle: distilled water + Tween-80): 106 % of control and 112 % of control
T/C [14]: 93 % of control
T/C (dose: 100.0 mg/kg/injection, schedule: Q01DX009 (ip), vehicle: distilled water + Tween-80): 108 % of control
T/C [15]: 155 % of control

COc1cccc([B-]23OCC[N+]2(CNC(=O)C2=C(O)C4(O)C(=O)C5=C(O)c6c(O)cccc6C(C)(O)C5CC4C(N(C)C)C2=O)CCO3)c1 (stereo not given)
T/C [5]: 110 % of control
T/C [6]: 105 % of control
T/C [7]: 115 % of control

Cn1c(=O)c2c(nc(/N=C/c3ccncc3)n2C)n(C)c1=O
T/C (dose: 100.0 mg/kg/injection, schedule: Q04DX003 (ip), vehicle: saline): 101 % of control
T/C (dose: 200.0 mg/kg/injection, schedule: Q04DX003 (ip), vehicle: saline): 101 % of control
T/C (dose: 400.0 mg/kg/injection, schedule: Q04DX003 (ip), vehicle: saline): 101 % of control

Cc1ccc(S(=O)CC#CC#CCS(=O)c2ccc(C)cc2)cc1 (stereo not given)
T/C [17]: 93 % of control
T/C [8]: 97 % of control
T/C [9]: 101 % of control

CCCC1OC(C)(Cc2ccccc2)OCC1CC (stereo not given)
T/C (dose: 100.0 mg/kg/injection, schedule: Q01DX009 (ip), vehicle: saline): 103 % of control
T/C (dose: 200.0 mg/kg/injection, schedule: Q01DX009 (ip), vehicle: saline): 113 % of control
T/C (dose: 400.0 mg/kg/injection, schedule: Q01DX009 (ip), vehicle: saline): 109 % of control

Cc1ccc(S(=O)(=O)NC(=O)NC2=NC(C)(C)N(c3ccc(Cl)c(Cl)c3)C(N)=N2)cc1
T/C [18]: 105 % of control
T/C [19]: 108 % of control
T/C (dose: 240.0 mg/kg/injection, schedule: Q01DX005 (ip), vehicle: saline with Tween-80): 114 % of control

Nc1ccc(NC(=O)c2ccc([N+](=O)[O-])cc2)cc1
T/C [13]: 115 % of control
T/C [14]: 112 % of control
T/C [15]: 106 % of control
T/C [16]: 115 % of control
T/C (dose: 400.0 mg/kg/injection, schedule: Q01DX009 (ip), vehicle: other): 123 % of control

COC(=O)c1nnn(-c2ccc(C)c(C)c2)c1C(=O)c1ccccc1
T/C [18]: 99 % of control
T/C [19]: 109 % of control

CC1(C)CCCC2(C)C1CCC1(C)OC(/C(=C\CO)CO)CC12 (stereo not given)
T/C (dose: 50.0 mg/kg/injection, schedule: Q01DX009 (ip), vehicle: Klucel (hydroxypropylcellulose) (HPC)): 96 % of control
T/C (dose: 100.0 mg/kg/injection, schedule: Q01DX009 (ip), vehicle: Klucel (hydroxypropylcellulose) (HPC)): 86 % of control

CC(C)CC(NC(=O)OC(C)(C)C)C(=O)CBr (stereo not given)
T/C (dose: 12.5 mg/kg/injection, schedule: Q01DX001 (ip), vehicle: saline with Tween-80): 105 % of control
T/C (dose: 25.0 mg/kg/injection, schedule: Q01DX001 (ip), vehicle: saline with Tween-80): 105 % of control
T/C [17]: 96 % of control
